Results from patent US20240245629A1, “USE OF ATOVAQUONE AND PROGUANIL FOR REDUCING STEROID USE, ALL-CAUSE HOSPITALIZATION, OR ADVANCED THERAPY USE IN A SUBJECT DIAGNOSED WITH INFLAMMATORY BOWEL DISEASE, CROHN'S DISEASE, OR ULCERATIVE COLITIS” (Elevaid Therapeutics, Inc., priority 2020, published 2024).
Entries after “also recorded” stand apart in the source; their conditions may differ. Counter-ions that a name gives are not always drawn. Like-named read-outs stand apart in the source and are kept apart here.

Tests used:
[1] = tested on: ulcerative colitis patient
[2] = tested on: patients with IBD, CD, and UC; assay: Retrospective propensity-matched cohort study (TriNetX), secondary analysis: A/P vs HAV, HCQ, MES; assay type: in vivo, human; conditions: propensity score matched, within 1 year of exposure
Description: Using a multi-institutional database, after 1:1 propensity score matching, we identified adult all-cause IBD patients between 2000 and 2019. […] Outcomes were steroid use, hospitalization, or advanced therapy use within 1 year of exposure. The experiments were repeated in Crohn's disease (CD) and ulcerative colitis (UC) patient cohorts. […]
A retrospective cohort study was performed using a de-identified multi-institutional database with 80 contributing healthcare organizations (HCO), including over 113 million patients (TriNetX Research Network, Cambridge, Massachusetts, date of data access Dec. 7, 2023; IRB exempt). TriNetX regularly aggregates clinical data directly from participating HCOs, primarily in the United States, including extensive data quality and accuracy assessment. Institutional information relating to participating HCOs is also de-identified, however, a typical HCO includes a large academic healthcare center with prevalent capabilities for inpatient services, outpatient services, and specialty care services.
A second analysis was performed to identify all adult patients (aged≥18 years) diagnosed with IBD, including Crohn's disease (CD, ICD-10: K50) and/or ulcerative colitis (UC, ICD-10: K51), between Jan. 1, 2000, and Dec. 31, 2019. […] The index event for all groups was the time of the patient's first prescription.
If there were multiple prescriptions, the index event was defined as the date of the first prescription. Information on duration and dosage was not available.
The outcomes of steroid use (yes/no), hospitalization (yes/no), and advanced therapy use (yes/no) were chosen as they are generally regarded as surrogate markers for IBD activity. Steroid use was defined as a prescription for prednisone, methylprednisolone, or budesonide. All-cause hospitalization was used because TriNetX could not specify a cause for hospitalization. Advanced therapy use was defined as a prescription for adalimumab, certolizumab pegol, golimumab, infliximab, vedolizumab, ustekinumab, tofacitinib, azathioprine, mercaptopurine, or methotrexate. Information on the duration and dosage of outcome drugs was also not available.
This created a potential for bias in that many patients may experience one or more of the measured outcomes (steroid use, hospitalization, or advanced therapy use) within the first year of their diagnosis as standard of care. Indexing those patients to a time other than the time of their original diagnosis, for example, to a time when they received a prescription for a different medication, would mitigate that bias.
Comparators that would not only mitigate the index bias, but also address other potential biases, were specifically chosen. […] HAV is also frequently prescribed for travelers, and there happens to be a high degree of geographic overlap among hepatitis A and malaria-endemic regions.
We performed 1:1 greedy nearest neighbor propensity score matching (caliper of 0.1 standard deviations) to balance cohorts on age, sex, race, comorbid conditions (including cardiovascular, pulmonary, rheumatologic, and renal co-morbidities included in the Charlson Comorbidity Index), presence of prior hospitalization, and use of steroids and IBD advanced therapy (as defined above) to control for baseline disease severity and prior presence of any of the measured outcomes (Table 1, Supplemental Table 1). Differences between groups were calculated using either an independent t-test or a chi-square test as appropriate. Estimates of odds ratios (OR), and 95% confidence intervals (CI) were used to describe the outcome risks. P-values of α<0.05 were considered statistically significant.

[3] = tested on: patients with ulcerative colitis; conditions: small human trial; cited from earlier work
[4] = tested on: murine colitis; conditions: mouse, in vivo, cited from earlier work
[5] = tested on: UC patients; conditions: 60 UC patients; cited from earlier work
[6] = cited from earlier work
[7] = tested on: human neutrophils; conditions: by preventing up-regulation of CD11b; cited from earlier work
[8] = tested on: DSS-induced murine colitis; conditions: cited from earlier work
[9] = Crohn's disease, n = 381 per cohort, A/P vs HCQ
[10] = all-cause IBD, n = 947 per cohort, A/P vs HCQ
[11] = ulcerative colitis, n = 405 per cohort, A/P vs HCQ
[12] = Crohn's disease, n = 313 per cohort, A/P vs MES
[13] = all-cause IBD, n = 624 per cohort, A/P vs MES
[14] = ulcerative colitis, n = 260 per cohort, A/P vs MES

## CO[C@H]1/C=C/O[C@@]2(C)Oc3c(C)c(O)c4c(O)c(c5c(nc6cc(C)ccn65)c4c3C2=O)NC(=O)/C(C)=C\C=C\[C@H](C)[C@H](O)[C@@H](C)[C@@H](O)[C@@H](C)[C@H](OC(C)=O)[C@@H]1C [rifaximin]
[1]; 10-day course, 275 mg TID
  colitis symptoms: symptoms persisted

## CCN(CCO)CCCC(C)Nc1ccnc2cc(Cl)ccc12 (stereo not drawn) [HCQ, hydroxychloroquine]
[2]; [9]
  all-cause hospitalization, number of patients: 43
  steroid use, number of patients: 194
[2]; [10]
  advanced therapy use, number of patients: 277
  all-cause hospitalization, number of patients: 118
  steroid use, number of patients: 485
[2]; [11]
  advanced therapy use, number of patients: 99
  all-cause hospitalization, number of patients: 60
  steroid use, number of patients: 211
[3]
  efficacy vs placebo in ulcerative colitis: failed to demonstrate superiority over placebo
[4]
  murine colitis and associated cancer: showed efficacy; also recorded: attenuate murine colitis
[4]; listed as Hydroxychloroquine
  murine colitis and associated cancer: decrease the incidence

## CCN(CC)CCCC(C)Nc1ccnc2cc(Cl)ccc12 (stereo not drawn) [chloroquine]
[5]
  adverse events compared to sulfasalazine: fewer
  remission and response rates compared to sulfasalazine: similar

## [H]/N=C(\N/C(=N/[H])Nc1ccc(Cl)cc1)NC(C)C [Proguanil hydrochloride, 1-(4-chlorophenyl)-5-isopropyl-biguanide]
[6]
  solubility in water: sparingly soluble

## C[C@]12C=CC(=O)C=C1CC[C@@H]1[C@@H]2C(=O)C[C@@]2(C)[C@H]1CC[C@]2(O)C(=O)CO [prednisone]
[1]; 40 mg daily, after 7 days
  colitis symptoms: no improvement

## O=C1C(O)=C([C@H]2CC[C@H](c3ccc(Cl)cc3)CC2)C(=O)c2ccccc21 [Atovaquone, trans-2-[4-(4-chlorophenyl)cyclohexyl]-3-hydroxy-1,4-naphthalenedione]
[7]
  human neutrophil chemotaxis: directly suppressed
[6]
  solubility in water: practically insoluble
[8]; by reducing mucosal neutrophil accumulation
  colitis (DSS-induced murine / experimental): attenuates; also recorded: promoted the resolution
[8]; mouse, in vivo
  S100A9 and CD11b expression on neutrophil surfaces: reduction

## Nc1ccc(O)c(C(=O)O)c1 [MES, mesalamine]
[2]; [12]
  all-cause hospitalization, number of patients: 53
  steroid use, number of patients: 162
[2]; [13]
  advanced therapy use, number of patients: 182
  all-cause hospitalization, number of patients: 92
  steroid use, number of patients: 307
[2]; [14]
  advanced therapy use, number of patients: 31
  all-cause hospitalization, number of patients: 47
  steroid use, number of patients: 111
[1]; 4.8 grams generic tablets daily, day 1
  therapeutic effect on colitis: no therapeutic effect
[1]; in vivo
  adverse event: moderate costochondral chest pain
